From patent US20250313549A1, “HERBICIDAL DERIVATIVES” (SYNGENTA CROP PROTECTION AG, priority 2021, published 2025)

Assays:
Format in all cases: in vivo
[1] = test system: Setaria faberi (SETFA); assay: Post-emergence test, herbicidal damage; conditions: sprayed after 8 days cultivation, 1000 g/ha, evaluated after 13 days
Description: (§1) Seeds of a variety of test species are sown in standard soil in pots (Amaranthus retoflexus (AMARE), Echinochloa crus-galli (ECHCG), Amaranthus palmeri (AMAPA), Setaria faberi (SETFA), Zea mays (ZEAMX), Ipomoea hederacea (IPOHE)). After 8 days cultivation under controlled conditions in a glasshouse (at 24° C./16° C., day/night; 14 hours light; 65% humidity), the plants are sprayed with an aqueous spray solution derived from the formulation of the technical active ingredient in acetone/water (50:50) solution containing 0.5% Tween 20 (polyoxyethylene sorbitan monolaurate, CAS RN 9005-64-5). Compounds are applied at 1000 g/ha unless otherwise stated. The test plants are then grown in a glasshouse under controlled conditions in a glasshouse (at 24° C./16° C., day/night; 14 hours light; 65% humidity) and watered twice daily. After 13 days the test is evaluated for the percentage damage caused to the plant. The biological activities are shown in the following table on a five-point scale (5=81-100%; 4=61-80%; 3=41-60%; 2=21-40%; 1=10-20%; 0=0%; -=not tested).

[2] = test system: Echinochloa crus-galli (ECHCG); assay: Post-emergence test, herbicidal damage; conditions: sprayed after 8 days cultivation, 1000 g/ha, evaluated after 13 days
Description: as §1

[3] = test system: Ipomoea hederacea (IPOHE); assay: Post-emergence test, herbicidal damage; conditions: sprayed after 8 days cultivation, 1000 g/ha, evaluated after 13 days
Description: as §1

[4] = test system: Amaranthus retoflexus (AMARE); assay: Post-emergence test, herbicidal damage; conditions: sprayed after 8 days cultivation, 1000 g/ha, evaluated after 13 days
Description: as §1

[5] = test system: Amaranthus palmeri (AMAPA); assay: Post-emergence test, herbicidal damage; conditions: sprayed after 8 days cultivation, 1000 g/ha, evaluated after 13 days
Description: as §1

[6] = test system: Zea mays (ZEAMX); assay: Post-emergence test, herbicidal damage; conditions: sprayed after 8 days cultivation, 1000 g/ha, evaluated after 13 days
Description: as §1

[7] = test system: Amaranthus retoflexus (AMARE); assay: Pre-emergence test, herbicidal damage; conditions: 1000 g/ha, evaluated after 13 days
[8] = test system: Echinochloa crus-galli (ECHCG); assay: Pre-emergence test, herbicidal damage; conditions: 1000 g/ha, evaluated after 13 days
[9] = test system: Zea mays (ZEAMX); assay: Pre-emergence test, herbicidal damage; conditions: 1000 g/ha, evaluated after 13 days
[10] = test system: Ipomoea hederacea (IPOHE); assay: Pre-emergence test, herbicidal damage; conditions: 1000 g/ha, evaluated after 13 days
[11] = test system: Amaranthus palmeri (AMAPA); assay: Pre-emergence test, herbicidal damage; conditions: 1000 g/ha, evaluated after 13 days

CCOC(=O)c1nn(-c2ccnc(Cl)c2)c2cccc(Br)c2c1=O [Compound 3, ethyl 5-bromo-1-(2-chloro-4-pyridyl)-4-oxo-cinnoline-3-carboxylate]
percentage damage caused to the plant, SETFA [1]: 0 (0=0%)
percentage damage caused to the plant, ECHCG [2]: 2 (2=21-40%)
percentage damage caused to the plant, IPOHE [3]: 0 (0=0%)
percentage damage caused to the plant, AMARE [4]: 2 (2=21-40%)
percentage damage caused to the plant, AMAPA [5]: 1 (1=10-20%)
percentage damage caused to the plant, ZEAMX [6]: 0 (0=0%)

CCOC(=O)c1nn(-c2cnc(Cl)c(C)c2)c2cccc(Br)c2c1=O [Compound 26, ethyl 5-bromo-1-(6-chloro-5-methyl-3-pyridyl)-4-oxo-cinnoline-3-carboxylate]
percentage damage caused to the plant, AMARE [7]: 1 (1=10-20%)
percentage damage caused to the plant, ECHCG [8]: 0 (0=0%)
percentage damage caused to the plant, ZEAMX [9]: 0 (0=0%)
percentage damage caused to the plant, IPOHE [10]: 0 (0=0%)
percentage damage caused to the plant, SETFA [1]: 1 (1=10-20%)
percentage damage caused to the plant, ECHCG [2]: 0 (0=0%)
percentage damage caused to the plant, IPOHE [3]: 2 (2=21-40%)
percentage damage caused to the plant, AMARE [4]: 2 (2=21-40%)
percentage damage caused to the plant, AMAPA [5]: 1 (1=10-20%)
percentage damage caused to the plant, AMAPA [11]: 1 (1=10-20%)

CCOC(=O)c1nn(-c2ccc(OC)nc2)c2cccc(Br)c2c1=O [Compound 4, ethyl 5-bromo-1-(6-methoxy-3-pyridyl)-4-oxo-cinnoline-3-carboxylate]
percentage damage caused to the plant, SETFA [1]: 0 (0=0%)
percentage damage caused to the plant, ECHCG [2]: 0 (0=0%)
percentage damage caused to the plant, IPOHE [3]: 0 (0=0%)
percentage damage caused to the plant, AMARE [4]: 2 (2=21-40%)
percentage damage caused to the plant, AMAPA [5]: 1 (1=10-20%)
percentage damage caused to the plant, ZEAMX [6]: 0 (0=0%)

CCOC(=O)c1nn(-c2cnc(OC)c(C)c2)c2cccc(Br)c2c1=O [Compound 29, ethyl 5-bromo-1-(6-methoxy-5-methyl-3-pyridyl)-4-oxo-cinnoline-3-carboxylate]
percentage damage caused to the plant, SETFA [1]: 0 (0=0%)
percentage damage caused to the plant, ECHCG [2]: 1 (1=10-20%)
percentage damage caused to the plant, IPOHE [3]: 2 (2=21-40%)
percentage damage caused to the plant, AMARE [4]: 2 (2=21-40%)
percentage damage caused to the plant, AMAPA [5]: 1 (1=10-20%)

CCOC(=O)c1nn(-c2ccnc(OC)c2)c2cccc(Br)c2c1=O [Compound 9, ethyl 5-bromo-1-(2-methoxy-4-pyridyl)-4-oxo-cinnoline-3-carboxylate]
percentage damage caused to the plant, SETFA [1]: 0 (0=0%)
percentage damage caused to the plant, ECHCG [2]: 1 (1=10-20%)
percentage damage caused to the plant, IPOHE [3]: 0 (0=0%)
percentage damage caused to the plant, AMARE [4]: 1 (1=10-20%)
percentage damage caused to the plant, AMAPA [5]: 1 (1=10-20%)
percentage damage caused to the plant, ZEAMX [6]: 1 (1=10-20%)

CCOC(=O)c1nn(-c2cnc3c(c2)OC(F)(F)O3)c2cccc(Br)c2c1=O [Compound 24, ethyl 5-bromo-1-(2,2-difluoro-[1,3]dioxolo[4,5-b]pyridin-6-yl)-4-oxo-cinnoline-3-carboxylate]
percentage damage caused to the plant, SETFA [1]: 2 (2=21-40%)
percentage damage caused to the plant, ECHCG [2]: 2 (2=21-40%)
percentage damage caused to the plant, IPOHE [3]: 0 (0=0%)
percentage damage caused to the plant, AMARE [4]: 0 (0=0%)
percentage damage caused to the plant, AMAPA [5]: 0 (0=0%)
percentage damage caused to the plant, ZEAMX [6]: 1 (1=10-20%)

CCOC(=O)c1nn(-c2ccnc(OC(F)F)c2)c2cccc(Br)c2c1=O [Compound 38, ethyl 5-bromo-1-[2-(difluoromethoxy)-4-pyridyl]-4-oxo-cinnoline-3-carboxylate]
percentage damage caused to the plant, SETFA [1]: 1 (1=10-20%)
percentage damage caused to the plant, ECHCG [2]: 0 (0=0%)
percentage damage caused to the plant, IPOHE [3]: 2 (2=21-40%)
percentage damage caused to the plant, AMARE [4]: 2 (2=21-40%)
percentage damage caused to the plant, AMAPA [5]: 1 (1=10-20%)

CCOC(=O)c1nn(-c2ccc(C(F)F)nc2)c2cccc(Br)c2c1=O [Compound 30, ethyl 5-bromo-1-[6-(difluoromethyl)-3-pyridyl]-4-oxo-cinnoline-3-carboxylate]
percentage damage caused to the plant, AMARE [7]: 0 (0=0%)
percentage damage caused to the plant, ECHCG [8]: 2 (2=21-40%)
percentage damage caused to the plant, ZEAMX [9]: 0 (0=0%)
percentage damage caused to the plant, IPOHE [10]: 0 (0=0%)
percentage damage caused to the plant, SETFA [1]: 0 (0=0%)
percentage damage caused to the plant, ECHCG [2]: 4 (4=61-80%)
percentage damage caused to the plant, IPOHE [3]: 2 (2=21-40%)
percentage damage caused to the plant, AMARE [4]: 1 (1=10-20%)
percentage damage caused to the plant, AMAPA [5]: 1 (1=10-20%)
percentage damage caused to the plant, AMAPA [11]: 0 (0=0%)

CCOC(=O)c1nn(-c2ccnc(OC(F)F)c2)c2cccc(/C(C)=N\OC)c2c1=O [Compound 41, ethyl 1-[2-(difluoromethoxy)-4-pyridyl]-5-[(Z)—N-methoxy-C-methyl-carbonimidoyl]-4-oxo-cinnoline-3-carboxylate]
percentage damage caused to the plant, AMARE [7]: 0 (0=0%)
percentage damage caused to the plant, ECHCG [8]: 4 (4=61-80%)
percentage damage caused to the plant, ZEAMX [9]: 1 (1=10-20%)
percentage damage caused to the plant, IPOHE [10]: 0 (0=0%)
percentage damage caused to the plant, SETFA [1]: 1 (1=10-20%)
percentage damage caused to the plant, ECHCG [2]: 2 (2=21-40%)
percentage damage caused to the plant, IPOHE [3]: 1 (1=10-20%)
percentage damage caused to the plant, AMARE [4]: 1 (1=10-20%)
percentage damage caused to the plant, AMAPA [5]: 1 (1=10-20%)
percentage damage caused to the plant, AMAPA [11]: 0 (0=0%)

CCOC(=O)c1nn(-c2ccnc(OC(F)F)c2)c2cccc(C(C)=O)c2c1=O [Compound 40, ethyl 5-acetyl-1-[2-(difluoromethoxy)-4-pyridyl]-4-oxo-cinnoline-3-carboxylate]
percentage damage caused to the plant, AMARE [7]: 0 (0=0%)
percentage damage caused to the plant, ECHCG [8]: 3 (3=41-60%)
percentage damage caused to the plant, ZEAMX [9]: 0 (0=0%)
percentage damage caused to the plant, IPOHE [10]: 0 (0=0%)
percentage damage caused to the plant, SETFA [1]: 1 (1=10-20%)
percentage damage caused to the plant, ECHCG [2]: 4 (4=61-80%)
percentage damage caused to the plant, IPOHE [3]: 1 (1=10-20%)
percentage damage caused to the plant, AMARE [4]: 1 (1=10-20%)
percentage damage caused to the plant, AMAPA [5]: 0 (0=0%)
percentage damage caused to the plant, AMAPA [11]: 0 (0=0%)

CCOC(=O)c1nn(-c2ncc(Cl)cc2C#N)c2cccc(Br)c2c1=O [Compound 33, ethyl 5-bromo-1-(5-chloro-3-cyano-2-pyridyl)-4-oxo-cinnoline-3-carboxylate]
percentage damage caused to the plant, SETFA [1]: 1 (1=10-20%)
percentage damage caused to the plant, ECHCG [2]: 1 (1=10-20%)
percentage damage caused to the plant, IPOHE [3]: 1 (1=10-20%)
percentage damage caused to the plant, AMARE [4]: 0 (0=0%)
percentage damage caused to the plant, ZEAMX [6]: 0 (0=0%)

CCOC(=O)c1nn(-c2ccc(OC(F)F)nc2)c2cccc(C#N)c2c1=O [Compound 35, ethyl 5-cyano-1-[6-(difluoromethoxy)-3-pyridyl]-4-oxo-cinnoline-3-carboxylate]
percentage damage caused to the plant, SETFA [1]: 0 (0=0%)
percentage damage caused to the plant, ECHCG [2]: 0 (0=0%)
percentage damage caused to the plant, IPOHE [3]: 1 (1=10-20%)
percentage damage caused to the plant, AMARE [4]: 1 (1=10-20%)
percentage damage caused to the plant, AMAPA [5]: 1 (1=10-20%)

CCOC(=O)c1nn(-c2ccc(F)nc2)c2cccc(C#N)c2c1=O [Compound 11, ethyl 5-cyano-1-(6-fluoro-3-pyridyl)-4-oxo-cinnoline-3-carboxylate]
percentage damage caused to the plant, SETFA [1]: 0 (0=0%)
percentage damage caused to the plant, ECHCG [2]: 2 (2=21-40%)
percentage damage caused to the plant, IPOHE [3]: 0 (0=0%)
percentage damage caused to the plant, AMARE [4]: 0 (0=0%)
percentage damage caused to the plant, AMAPA [5]: 0 (0=0%)
percentage damage caused to the plant, ZEAMX [6]: 1 (1=10-20%)

CCOC(=O)c1nn(-c2cncc(Cl)c2)c2cccc(Br)c2c1=O [Compound 5, ethyl 5-bromo-1-(5-chloro-3-pyridyl)-4-oxo-cinnoline-3-carboxylate]
percentage damage caused to the plant, SETFA [1]: 2 (2=21-40%)
percentage damage caused to the plant, ECHCG [2]: 2 (2=21-40%)
percentage damage caused to the plant, IPOHE [3]: 1 (1=10-20%)
percentage damage caused to the plant, AMARE [4]: 1 (1=10-20%)
percentage damage caused to the plant, AMAPA [5]: 1 (1=10-20%)
percentage damage caused to the plant, ZEAMX [6]: 1 (1=10-20%)

CCOC(=O)c1nn(-c2cncnc2)c2cccc(Br)c2c1=O [Compound 8, ethyl 5-bromo-4-oxo-1-pyrimidin-5-yl-cinnoline-3-carboxylate]
percentage damage caused to the plant, SETFA [1]: 0 (0=0%)
percentage damage caused to the plant, ECHCG [2]: 0 (0=0%)
percentage damage caused to the plant, IPOHE [3]: 0 (0=0%)
percentage damage caused to the plant, AMARE [4]: 0 (0=0%)
percentage damage caused to the plant, AMAPA [5]: 0 (0=0%)
percentage damage caused to the plant, ZEAMX [6]: 0 (0=0%)

CCOC(=O)c1nn(-c2cnc(OC)c(F)c2)c2cccc(Br)c2c1=O [Compound 22, ethyl 5-bromo-1-(5-fluoro-6-methoxy-3-pyridyl)-4-oxo-cinnoline-3-carbox-ylate]
percentage damage caused to the plant, SETFA [1]: 0 (0=0%)
percentage damage caused to the plant, ECHCG [2]: 0 (0=0%)
percentage damage caused to the plant, IPOHE [3]: 0 (0=0%)
percentage damage caused to the plant, AMARE [4]: 0 (0=0%)
percentage damage caused to the plant, AMAPA [5]: 0 (0=0%)
percentage damage caused to the plant, ZEAMX [6]: 0 (0=0%)
